Measurements taken from patent US8536202B2, “Triazole-substituted anthranilamides as pesticides” (Bayer Cropscience AG, priority 2010, dated 2013).
Read-outs that look alike come from different tables or passages of the source.

Experiments:
[1] = log P determination by HPLC on reversed-phase columns (EEC Directive 79/831 Annex V.A8); assay type: physicochemical; details: pH 2.7
Method in brief: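 log P from reversed-phase LC-MS retention at pH 2.7, 0.1% formic acid water/acetonitrile gradient 10–95% acetonitrile. Calibrated against C3–C16 unbranched alkan-2-ones, interpolating linearly between adjacent alkanones.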

[2] = tested on: caterpillars of the armyworm (Spodoptera frugiperda); test: Spodoptera frugiperda test (SPODFR spray treatment); assay type: in vivo; details: 168 h, read-out: activity in %
Method in brief: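 Maize leaf discs sprayed with compound diluted in emulsifier-containing water (acetone/DMF solvent, alkylaryl polyglycol ether emulsifier), dried, then infested with armyworm caterpillars. Kill scored after 7 days as % mortality, 100% = all caterpillars dead, 0% = none.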

[3] = tested on: larvae of the mustard beetle (Phaedon cochleariae); test: Phaedon test (PHAECO spray treatment); assay type: in vivo; details: 168 h, read-out: activity in %
Method in brief: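 Compound dissolved in acetone/dimethylformamide with alkylaryl polyglycol ether emulsifier, then diluted with emulsifier-containing water to test concentration for spray treatment of Phaedon cochleariae larvae. Activity scored after 7 days as % larvae killed (100% = all dead, 0% = none).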

[4] = tested on: green peach aphid (Myzus persicae); test: Myzus test (MYZUPE spray treatment), Use Example 4; assay type: in vivo; details: 144 h, read-out: activity in %
Method in brief: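 Compound was formulated in acetone/dimethylformamide with alkylaryl polyglycol ether emulsifier and diluted in emulsifier-containing water. It was sprayed onto Chinese cabbage leaf discs infested with all stages of Myzus persicae. Mortality (%) was scored after 6 days, where 100% means all aphids killed.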

[5] = HPLC on reversed-phase columns (C 18), EEC Directive 79/831 Annex V.A8, read-out: logP

SMILES | chromatographic logP [1] | pest or weed control at 100 g/ha ([2]; 100 g/ha, after 7 days) [%] | pest or weed control at 100 g/ha ([3]; 100 g/ha, after 7 days) [%] | pest or weed control at 100 g/ha ([4]; 100 g/ha, after 6 days) [%] | chromatographic logP [1, 5] | pest or weed control at 100 g/ha [2] [%] | pest or weed control at 100 g/ha [3] [%] | pest or weed control at 100 g/ha [4] [%]
CNC(=O)c1cc(Cl)cc(C)c1NC(=O)c1cc(Cn2cc(C(F)(F)C(F)(F)F)nn2)nn1-c1ncccc1Cl [Example 299] | 3.02 | 100 | 100 | 80 | – | – | – | –
Cc1cc(Cl)cc(C(=O)NC(C)C2CC2)c1NC(=O)c1cc(Cn2cc(C(F)(F)C(F)(F)F)nn2)nn1-c1ncccc1Cl (stereo not drawn) [Example 300] | 3.79 | 100 | 100 | 90 | – | – | – | –
Cc1cc(Cl)cc(C(=O)NC2CC2)c1NC(=O)c1cc(Cn2cc(C(F)(F)C(F)(F)F)nn2)nn1-c1ncccc1Cl [Example 301] | 3.26 | 100 | 100 | 90 | – | – | – | –
CCNC(=O)c1cc(Cl)cc(C)c1NC(=O)c1cc(Cn2cc(C(F)(F)C(F)(F)F)nn2)nn1-c1ncccc1Cl [Example 302] | 3.26 | 100 | 100 | 80 | – | – | – | –
Cc1cc(Cl)cc(C(=O)NC(C)C)c1NC(=O)c1cc(Cn2cc(C(F)(F)C(F)(F)F)nn2)nn1-c1ncccc1Cl [Example 303] | 3.5 | 100 | 100 | 100 | – | – | – | –
Cc1cc(Cl)cc(C(=O)NC(C)(C)C)c1NC(=O)c1cc(Cn2cc(C(F)(F)C(F)(F)F)nn2)nn1-c1ncccc1Cl [Example 304] | 3.85 | 100 | 100 | 100 | – | – | – | –
Cc1cc(Cl)cc(C(=O)NCC2CC2)c1NC(=O)c1cc(Cn2cc(C(F)(F)C(F)(F)F)nn2)nn1-c1ncccc1Cl [Example 305] | 3.55 | 100 | 100 | 100 | – | – | – | –
Cc1cc(Cl)cc(C(N)=O)c1NC(=O)c1cc(Cn2cc(C(F)(F)C(F)(F)F)nn2)nn1-c1ncccc1Cl [Example 306] | 2.78 | 100 | 100 | 100 | – | – | – | –
CSC[C@H](C)NC(=O)c1cc(Cl)cc(C)c1NC(=O)c1cc(Cn2cc(C(F)(F)C(F)(F)F)nn2)nn1-c1ncccc1Cl [Example 307] | 3.66 | 100 | 100 | 100 | – | – | – | –
CNC(=O)c1cc(I)cc(C)c1NC(=O)c1cc(Cn2cc(C(F)(F)C(F)(F)F)nn2)nn1-c1ncccc1Cl [Example 308] | 3.23 | 100 | 100 | 100 | – | – | – | –
Cc1cc(I)cc(C(=O)NC(C)C2CC2)c1NC(=O)c1cc(Cn2cc(C(F)(F)C(F)(F)F)nn2)nn1-c1ncccc1Cl (stereo not drawn) [Example 309] | 4.03 | 100 | 100 | 80 | – | – | – | –
Cc1cc(I)cc(C(=O)NC(C)C)c1NC(=O)c1cc(Cn2cc(C(F)(F)C(F)(F)F)nn2)nn1-c1ncccc1Cl [Example 312] | 3.73 | 100 | 100 | 80 | – | – | – | –
Cc1cc(I)cc(C(=O)NC(C)(C)C)c1NC(=O)c1cc(Cn2cc(C(F)(F)C(F)(F)F)nn2)nn1-c1ncccc1Cl [Example 313] | 4.09 | 100 | 100 | 100 | – | – | – | –
Cc1cc(I)cc(C(=O)NCC2CC2)c1NC(=O)c1cc(Cn2cc(C(F)(F)C(F)(F)F)nn2)nn1-c1ncccc1Cl [Example 314] | 3.8 | 100 | 100 | 80 | – | – | – | –
Cc1cc(I)cc(C(N)=O)c1NC(=O)c1cc(Cn2cc(C(F)(F)C(F)(F)F)nn2)nn1-c1ncccc1Cl [Example 315] | 2.98 | 100 | 100 | 90 | – | – | – | –
CSC[C@H](C)NC(=O)c1cc(I)cc(C)c1NC(=O)c1cc(Cn2cc(C(F)(F)C(F)(F)F)nn2)nn1-c1ncccc1Cl [Example 316] | 3.91 | 100 | 100 | 100 | – | – | – | –
CNC(=O)c1cc(C#N)cc(C)c1NC(=O)c1cc(Cn2cc(C(F)(F)C(F)(F)F)nn2)nn1-c1ncccc1Cl [Example 317] | 2.68 | 100 | 100 | 100 | – | – | – | –

SMILES | chromatographic logP [1] | pest or weed control at 100 g/ha ([2]; 100 g/ha, after 7 days) [%] | pest or weed control at 100 g/ha ([3]; 100 g/ha, after 7 days) [%] | pest or weed control at 100 g/ha ([4]; 100 g/ha, after 6 days) [%] | chromatographic logP [1, 5] | pest or weed control at 100 g/ha [2] [%] | pest or weed control at 100 g/ha [3] [%] | pest or weed control at 100 g/ha [4] [%]
Cc1cc(C#N)cc(C(=O)NC2CC2)c1NC(=O)c1cc(Cn2cc(C(F)(F)C(F)(F)F)nn2)nn1-c1ncccc1Cl [Example 318] | 2.89 | 100 | 100 | 100 | – | – | – | –
CCNC(=O)c1cc(C#N)cc(C)c1NC(=O)c1cc(Cn2cc(C(F)(F)C(F)(F)F)nn2)nn1-c1ncccc1Cl [Example 319] | 2.89 | 100 | 100 | 100 | – | – | – | –
Cc1cc(C#N)cc(C(=O)NC(C)C)c1NC(=O)c1cc(Cn2cc(C(F)(F)C(F)(F)F)nn2)nn1-c1ncccc1Cl [Example 320] | 3.11 | 100 | 100 | 100 | – | – | – | –
CSC[C@H](C)NC(=O)c1cc(Cl)cc(C)c1NC(=O)c1cc(Cn2cc(C(F)(F)C(F)(F)C(F)(F)F)nn2)nn1-c1ncccc1Cl [Example 324] | – | – | – | – | 3.99 | 100 | 100 | 100
Cc1cc(Cl)cc(C(=O)NCC2CC2)c1NC(=O)c1cc(Cn2cc(C(F)(F)C(F)(F)C(F)(F)F)nn2)nn1-c1ncccc1Cl [Example 325] | – | – | – | – | 3.9 | 100 | 100 | 100
Cc1cc(Cl)cc(C(=O)NC2CC2)c1NC(=O)c1cc(Cn2cc(C(F)(F)C(F)(F)C(F)(F)F)nn2)nn1-c1ncccc1Cl [Example 326] | – | – | – | – | 3.57 | 100 | 100 | 100
Cc1cc(Cl)cc(C(=O)NC(C)C2CC2)c1NC(=O)c1cc(Cn2cc(C(F)(F)C(F)(F)C(F)(F)F)nn2)nn1-c1ncccc1Cl (stereo not drawn) [Example 327] | – | – | – | – | 4.15 | 100 | 100 | 100
CNC(=O)c1cc(Cl)cc(C)c1NC(=O)c1cc(Cn2cc(C(F)(F)C(F)(F)C(F)(F)F)nn2)nn1-c1ncccc1Cl [Example 328] | – | – | – | – | 3.38 | 100 | 100 | 100
Cc1cc(C#N)cc(C(=O)NC(C)C)c1NC(=O)c1cc(Cn2cc(C(F)(F)C(F)(F)C(F)(F)F)nn2)nn1-c1ncccc1Cl [Example 329] | – | – | – | – | 3.42 | 100 | 100 | 100
Cc1cc(C#N)cc(C(=O)NC(C)C2CC2)c1NC(=O)c1cc(Cn2cc(C(F)(F)C(F)(F)C(F)(F)F)nn2)nn1-c1ncccc1Cl (stereo not drawn) [Example 331] | – | – | – | – | 3.71 | 100 | 100 | 100
Cc1cc(I)cc(C(N)=O)c1NC(=O)c1cc(Cn2cc(C(F)(F)C(F)(F)C(F)(F)F)nn2)nn1-c1ncccc1Cl [Example 332] | – | – | – | – | 3.35 | 100 | 100 | 100
CNC(=O)c1cc(I)cc(C)c1NC(=O)c1cc(Cn2cc(C(F)(F)C(F)(F)C(F)(F)F)nn2)nn1-c1ncccc1Cl [Example 337] | – | – | – | – | 3.59 | 100 | 100 | 100
Cc1cc(Cl)cc(C(N)=O)c1NC(=O)c1cc(Cn2cc(C(F)(F)C(F)(F)C(F)(F)F)nn2)nn1-c1ncccc1Cl [Example 338] | – | – | – | – | 3.13 | 100 | 100 | 100
Cc1cc(Cl)cc(C(=O)NC(C)(C)C)c1NC(=O)c1cc(Cn2cc(C(F)(F)C(F)(F)C(F)(F)F)nn2)nn1-c1ncccc1Cl [Example 339] | – | – | – | – | 4.21 | 100 | 100 | 90
Cc1cc(Cl)cc(C(=O)NC(C)C)c1NC(=O)c1cc(Cn2cc(C(F)(F)C(F)(F)C(F)(F)F)nn2)nn1-c1ncccc1Cl [Example 340] | – | – | – | – | 3.8 | 100 | 100 | 100
CCNC(=O)c1cc(Cl)cc(C)c1NC(=O)c1cc(Cn2cc(C(F)(F)C(F)(F)C(F)(F)F)nn2)nn1-c1ncccc1Cl [Example 341] | – | – | – | – | 3.62 | 100 | 100 | 100
